In patent publication US20140243261A1, “Method for treating diabetes and fatty liver disese by stimulating cellular metabolism” (priority 2013, published 2014):

System: resting carbohydrate metabolism
Assay: Resting metabolism by indirect calorimetric measurement in patients after pulsed IV insulin boluses with oral carbohydrate load
Assay type: in vivo, human
Source text: A basic treatment sequence, in one preferred embodiment, is as follows. • Settle the patient and establish an intravenous (IV) flow. • Measure blood glucose. • From Table 1, arrange for the specified grams of glucose be made available to the patient. • Have the patient consume the glucose relatively quickly (time scale of minutes). Drinking an appropriate amount of GLUCOLA at a convenient rate, such as over about 30 to 90 seconds, is a useful range and route of administration. • Start IV boluses of hormone. Insulin is a useful and typical hormone for this application. • Administer hormone at the selected quantity, rate, and pattern. These details are discussed in more detail in the following sections. A typical sequence will administer the selected amount of insulin (milliunits, determined as per kilogram body weight of the patient). A useful bolus is fairly quick, such as less than five seconds. Bolus injections are repeated periodically. A useful scheme is to give boluses every six minutes, over the course of one hour. It can be useful to give boluses more rapidly. Every four minutes is a useful number. Spacing of approximately three to approximately ten minutes can be useful, and we have not tested the outer ranges of usefulness.
One useful way of assessing metabolic activity and health is to measure the volume of Carbon Dioxide Production and a […]. In example (a) below, CO2 production initially equals 0.124 L per 30 seconds of exhaled breath, with a Resting Energy Ratio of 0.66. The ratio is how one can test the amount of carbohydrate metabolized and thus producing ATP to verify the patient is metabolizing carbohydrates. Below […] is lipid metabolism, and above […] is carbohydrate metabolism.
It is useful for the metabolic assessment of the present invention to express exhaled CO2 in volume/time, such as L/30 sec. This assessment varies by patient, according to their size, lung capacity and other factors understood by one skilled in the art of pulmonary function and metabolism.
A useful tool for assessing this is from Vacuumed. The Vacuumed website (www) vacuumed (corn) includes a good discussion of the resting metabolism measurement. • VO2=oxygen uptake (ml/min) • VCO2=carbon dioxide output (ml/min) • Respiratory quotient (RQ)=VCO2/VO2
• a. The treatment form has 3 one-hour sessions with from 10 to 60 minutes rest between treatments. • b. TREATMENT GOAL: The goal of the treatment is to obtain increased ATP production from carbohydrates, by metabolizing approximately 100 g of glucose for each hour including the rest period. A desirable treatment blood glucose for oral carbohydrates is 150 mg/dl or 8.3 mmol/L of blood glucose. That equates to approximately 380 calories of carbohydrates for each 1-hour treatment session, or a total of 1,140 calories total for the 4.5 to 5.5 hours. • c. In one embodiment, patients' serum glucose level is monitored every thirty minutes to determine carbohydrate uptake and utilization. Resting metabolic measurement by an indirect calorimeter such as the Vacuumed Metabolic Measurement system provides the level of production of ATP from carbohydrates to validate the increase. • d. In order to maintain serum glucose levels sufficient to provide for a carbohydrate load for the production of ATP, the serum glucose is maintained at 150 mg/dl or 8.3 mmol/L or more by starting at 10 milliunits per kilo and increasing by 2 milliunits each 30 minutes until the desired level is achieved. This level is constantly adjusted each 30 minutes until the nominal load is obtained, and then continues for the remainder of the treatment, and is used for subsequent treatments.
a. In a preferred implementation, these patients: • i. Were checked for serum blood glucose (BG) about every 30 minutes, and for about 4.5 hours. • ii. Were given glucose averaging approximately 1,200 calories over that time. • iii. […]

insulin
increase in ATP from carbohydrates (person with Alzheimer's Disease, 83 kg, three one-hour sessions, total 33 units insulin, 14 milliunits/kg): approximately 38% | Carbon Dioxide Production after treatment (person with Alzheimer's Disease, 83 kg, three one-hour sessions, total 33 units insulin, 14 milliunits/kg, baseline 0.151): 0.208 L per 30 seconds | Resting Energy Ratio after treatment (person with Alzheimer's Disease, 83 kg, three one-hour sessions, total 33 units insulin, 14 milliunits/kg, baseline 0.79): 0.99 | increase in ATP from carbohydrates (person, 50.5 kg, three one-hour sessions, total 42 units insulin, 28 milliunits/kg): approximately 280% | Carbon Dioxide Production after treatment (person, 50.5 kg, three one-hour sessions, total 42 units insulin, 28 milliunits/kg, baseline 0.121): 0.342 L per 30 seconds | Resting Energy Ratio after treatment (person, 50.5 kg, three one-hour sessions, total 42 units insulin, 28 milliunits/kg, baseline 0.67): 0.98 | increase in ATP from carbohydrates (person, 70 kg, three one-hour sessions, total 45 units insulin, 22 milliunits/kg): approximately 320% | Carbon Dioxide Production after treatment (person, 70 kg, three one-hour sessions, total 45 units insulin, 22 milliunits/kg, baseline 0.091): 0.293 L per 30 seconds | Resting Energy Ratio after treatment (person, 70 kg, three one-hour sessions, total 45 units insulin, 22 milliunits/kg, baseline 0.63): 0.98 | Carbon Dioxide Production after treatment (person, 85 kg, three one-hour sessions plus rest cycles, total 63 units insulin, 25 milliunits/kg, baseline 0.124): 0.255 L per 30 seconds | increase in ATP from carbohydrates (person, 85 kg, three one-hour sessions, total 63 units insulin, 25 milliunits/kg): approximately 205% | Resting Energy Ratio after treatment (person, 85 kg, three one-hour sessions, total 63 units insulin, 25 milliunits/kg, baseline 0.66): 0.96
